Source: PubChem BioAssay (NCI)
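Protocol summary: plate cells (96-well), add compound at 5 concentrations, incubate 48 h, interpolate endpoints linearly. TGI denotes the concentration required for complete inhibition of growth.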

Experiments:
Assay in all cases: inhibition of tumour cell growth, NCI panel, 48 h
SNB-19 CNS = system: SNB-19 CNS
MOLT-4 leukemia = system: MOLT-4 leukemia
SF-539 CNS = system: SF-539 CNS
IGROV1 ovarian = system: IGROV1 ovarian
NCI-H522 lung = system: NCI-H522 lung
RPMI-8226 leukemia = system: RPMI-8226 leukemia
NCI-H23 lung = system: NCI-H23 lung
UO-31 renal = system: UO-31 renal
SW-620 colon = system: SW-620 colon
HL-60(TB) leukemia = system: HL-60(TB) leukemia
NCI-H226 lung = system: NCI-H226 lung
EKVX NSCLC = system: EKVX NSCLC
COLO 205 colon = system: COLO 205 colon
HCT-15 colon = system: HCT-15 colon
SF-268 CNS = system: SF-268 CNS
HOP-92 NSCLC = system: HOP-92 NSCLC
SR leukemia = system: SR leukemia
UACC-62 melanoma = system: UACC-62 melanoma
KM12 colon = system: KM12 colon
ACHN renal = system: ACHN renal
TK-10 renal = system: TK-10 renal
K-562 leukemia = system: K-562 leukemia
A498 renal = system: A498 renal
M19-MEL melanoma = system: M19-MEL melanoma
HOP-62 NSCLC = system: HOP-62 NSCLC
A549 NSCLC = system: A549 NSCLC
KM20L2 colon = system: KM20L2 colon
OVCAR-4 ovarian = system: OVCAR-4 ovarian
OVCAR-8 ovarian = system: OVCAR-8 ovarian
SK-MEL-28 melanoma = system: SK-MEL-28 melanoma
DLD-1 colon = system: DLD-1 colon
DMS 114 small cell lung = system: DMS 114 small cell lung
SK-MEL-5 melanoma = system: SK-MEL-5 melanoma
UACC-257 melanoma = system: UACC-257 melanoma
HCC-2998 colon = system: HCC-2998 colon
CAKI-1 renal = system: CAKI-1 renal
SF-295 CNS = system: SF-295 CNS
SK-OV-3 ovarian = system: SK-OV-3 ovarian
M14 melanoma = system: M14 melanoma
OVCAR-5 ovarian = system: OVCAR-5 ovarian
SK-MEL-2 melanoma = system: SK-MEL-2 melanoma
U251 CNS = system: U251 CNS
HT29 colon = system: HT29 colon
RXF 393 renal = system: RXF 393 renal
NCI-H460 lung = system: NCI-H460 lung
SN12C renal = system: SN12C renal
HCT-116 colon = system: HCT-116 colon
XF 498 CNS = system: XF 498 CNS
DMS 273 small cell lung = system: DMS 273 small cell lung
CCRF-CEM leukemia = system: CCRF-CEM leukemia
LOX IMVI melanoma = system: LOX IMVI melanoma
SNB-75 CNS = system: SNB-75 CNS
LXFL 529 NSCLC = system: LXFL 529 NSCLC
MDA-MB-231 breast = system: MDA-MB-231 breast
NCI/ADR-RES ovarian = system: NCI/ADR-RES ovarian
MALME-3M melanoma = system: MALME-3M melanoma
MCF7 breast = system: MCF7 breast
DU-145 prostate = system: DU-145 prostate
T-47D breast = system: T-47D breast
OVCAR-3 ovarian = system: OVCAR-3 ovarian
MDA-MB-435 = system: MDA-MB-435
BT-549 breast = system: BT-549 breast
HS 578T breast = system: HS 578T breast
MDA-N = system: MDA-N
PC-3 prostate = system: PC-3 prostate

Measured: TGI

COC(=O)C(=O)C(C(C)=O)C(=O)C(=O)Nc1ccc(C)cc1C (configuration not stated)
not listed: MDA-MB-231 breast | NCI/ADR-RES ovarian | MALME-3M melanoma | MCF7 breast | DU-145 prostate | T-47D breast | OVCAR-3 ovarian | MDA-MB-435 | BT-549 breast | HS 578T breast | MDA-N | PC-3 prostate
> 100 µM: all other assays above

O=C(NCCN(CCNC(=O)c1cccc(=O)n1O)CCNC(=O)c1cccc(=O)n1O)c1cccc(=O)n1O
not listed: MOLT-4 leukemia | EKVX NSCLC | M19-MEL melanoma | KM20L2 colon | DLD-1 colon | DMS 114 small cell lung | HCT-116 colon | XF 498 CNS | DMS 273 small cell lung | LOX IMVI melanoma | LXFL 529 NSCLC
> 100 µM: all other assays above
